Read-outs that look alike come from different tables or passages of the source.
Tests used:
[1] = tested on: FPR2; details: at various concentrations; cited from earlier work
Description: This may be due to the coupling of Gi, which stabilizes the receptor in one active conformation. Thus, it is difficult to speculate on the specific conformational states of FPR2 associated with pro-inflammatory and pro-resolving agonists.

[2] = multiple studies; cited from earlier work
[3] = tested on: FPR2 F110A; assay: cAMP accumulation assay, HEK293 cells, Epac-based FRET biosensor H187, 1 µM forskolin; type: cell-based, human
Method: (§1) An Epac-based FRET cAMP biosensor H187 was used to measure cellular cAMP levels. The plasmid encoding H187 was transfected into HEK293 cells to make stable cells reporting intracellular cAMP levels. In brief, the H187 stable cells were seeded in poly-D-lysine treated 96-well black clear-bottom plate at 30,000 cells per well. 24 h later, cells were transiently transfected with DNA encoding the N-terminal FLAG-tagged wild-type FPR1, FPR2 or mutants at an amount of 0.1 µg DNA per well. Assays were performed 24 h after transfection. Cells were washed twice with HBSS buffer and incubated at room temperature for 30 min before the addition of forskolin to a final concentration of 1 µM. The intracellular cAMP level was measured using a multimode reader (Spark 20 M, TECAN) measuring the fluorescence emission intensity at 485 nm and 535 nm upon the excitation at 430 nm. 15 min after forskolin incubation, cells were stimulated with agonists at different concentrations and measured for additional 20 min. The FRET signal was calculated as the normalized FRET ratio of fluorescence emission at 535 nm (F535) divided by emission at 485 nm (F485). The EC50 was determined with the FRET ratio at the timepoint of 1600 s. The data analysis was performed using the nonlinear regression fit logIC50 mode in GraphPad Prism.

[4] = tested on: FPR2 R201A; assay: as above; type: cell-based, human
Method: as §1

[5] = tested on: FPR2 R205A; assay: as above; type: cell-based, human
Method: as §1

[6] = tested on: FPR2; details: relative to C43; cited from earlier work
Description: Similar to peptide agonists, C43 causes conformational changes of residues in the activation chamber including V113^3.40 and W254^6.48 through direct interactions to activate the receptor.

[7] = tested on: FPR2; details: cited from earlier work
[8] = tested on: FPR1; details: cited from earlier work
[9] = tested on: FPR1 versus FPR2; details: cited from earlier work
[10] = tested on: FPR1 R205A; assay: cAMP accumulation assay, HEK293 cells, Epac-based FRET biosensor H187, 1 µM forskolin; type: cell-based, human; details: FPR1 R205A vs wild type
Method: as §1

[11] = tested on: FPR1 Y257F; assay: as above; type: cell-based, human; details: FPR1 Y257F vs wild type
Method: as §1

[12] = tested on: FPR1 D106A; assay: as above; type: cell-based, human; details: FPR1 D106A vs wild type
Method: as §1

[13] = tested on: FPR1 F102H; assay: as above; type: cell-based, human; details: FPR1 F102H vs wild type
Method: as §1

[14] = tested on: FPR1 R201A; assay: as above; type: cell-based, human; details: FPR1 R201A vs wild type
Method: as §1

[15] = tested on: FPR1 R84D; assay: as above; type: cell-based, human; details: FPR1 R84D vs wild type
Method: as §1

[16] = tested on: FPR1; details: short formylpeptides; cited from earlier work
Description: The human formylpeptide receptor (FPR) family comprises of three members, FPR1, FPR2 (also named FPRL1), and FPR3[1]. They were initially discovered and characterized as pattern recognition G protein-coupled receptors (GPCRs) to recognize peptides with N-terminal formyl methionine, which are derived from invading pathogens or host mitochondria as pathogen- or damage-associated molecular patterns (PAMPs and DAMPs)[1]–[5]. FPR1 and FPR2 share a high sequence similarity, yet they display different preferences of formylpeptides. FPR1 is a high-affinity receptor for many short formylpeptides suc ...

[17] = tested on: FPR2 R201A; details: cited from earlier work
Description: (§2) To investigate critical structural determinants for the binding of CGEN-885A, we measured the CGEN-885A-induced signaling of FPR2 with mutations of residues in the CGEN-885A-binding pocket. […] Considering the negatively charged environment of the ligand-b ...

[18] = tested on: FPR2 R205A; details: cited from earlier work
Description: as §2

## CCCCC[C@@H](O)/C=C/C=C\C=C\C=C\[C@@H](O)[C@@H](O)CCCC(=O)O [ATL, aspirin-triggered 15-epi-lipoxin A4]
[1]
  FPR2 signaling responses: unusual biphasic signaling responses

## COc1cc(F)c([C@@H]2CNC(=O)[C@H]2NC(=O)Nc2ccccc2)c(F)c1 [BMS-986235]
[2]
  pro-resolving and cardiac protective effects: pro-resolving and cardiac protective effects

## CC(C)c1c(NC(=O)Nc2ccc(Cl)cc2)c(=O)n(-c2ccccc2)n1C [C43]
[3]
  agonistic action, effect of mutation F110A: nearly undetectable agonistic action
[4]
  agonistic action, effect of mutation R201A: nearly undetectable agonistic action
[5]
  agonistic action, effect of mutation R205A: nearly undetectable agonistic action
[6]
  ligand potency on alternating the para-position of the chloride group: significant loss of ligand potency
[7]; small-molecule agonist
  agonist activity on FPR2: potent
[8]; small-molecule agonist
  agonist activity on FPR1: potent

## COc1cccc(Cc2cc(C)nn(C(C)C(=O)Nc3ccc(Br)cc3)c2=O)c1 (centres unmarked) [Compound 17b]
[2]
  pro-resolving and cardiac protective effects: pro-resolving and cardiac protective effects

## N-formyl-Met-Leu-Phe [fMLF, prototypical formylpeptide]
[9]; FPR2 relative to FPR1
  fold less potent (in terms of EC50) in inducing FPR2 signaling than FPR1: about 1000 fold
[10]
  agonistic potency, effect of mutation R205A: compromised agonistic potency
[11]
  potency in activating FPR1, effect of mutation of Y257 to FPR2 counterpart: reduced potency
[12]
  agonistic potency, effect of mutation D106A: compromised agonistic potency
[13]
  potency in activating FPR1, effect of mutation of F102 to FPR2 counterpart: reduced potency
[14]
  agonistic potency, effect of mutation R201A: compromised agonistic potency
[15]
  potency in activating FPR1, effect of mutation R84D: reduces the potency
[16]
  FPR1 affinity: high-affinity

## WKYMVm
[17]
  agonistic activity, effect of mutation R201A: much compromised agonistic activities
[18]
  agonistic activity, effect of mutation R205A: much compromised agonistic activities

## fMLFII [formylpeptide agonist for both FPR1 and FPR2]
[9]; FPR1 relative to FPR2
  fold higher potency in activating FPR1 than FPR2: ~ 100 fold
[9]; FPR1 vs FPR2
  affinity for FPR1 relative to FPR2: higher affinity
[7]; formylpeptide agonist
  agonist activity on FPR2: potent
[8]; formylpeptide agonist
  agonist activity on FPR1: potent
